Tests used:
rice flat sedge = assay: Test Example 3: herbicidal effect by foliage application, Wagner pot (Table 18, symbol E); format: in vivo, rice flat sedge (Cyperus iria)
How it was run: (§1)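 Plants were sown in alluvial soil held under 0.1–0.5 cm standing water and grown 14 days in a greenhouse at 25–30 °C. An emulsifiable formulation, water-diluted to the set dose, was then sprayed onto the foliage, and effects were scored three weeks later using previously defined criteria.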

green foxtail [1] = assay: Test Example 5: herbicidal effect by foliage application, plastic box (Table 20, symbol G); format: in vivo, green foxtail (Setaria viridis); conditions: foliage application, three weeks after application
How it was run: (§2)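 Foliar spray test: emulsion formulation diluted in water to a set application rate, sprayed onto 14-day-old plants raised in diluvial soil at 25° C to 30° C under glass. Both herbicidal effect and crop effect rated visually three weeks later.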

green foxtail [2] = assay: Test Example 4: herbicidal effect by soil treatment (Table 19, symbol G); format: in vivo, green foxtail (Setaria viridis)
How it was run: (§3)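 Herbicidal effect was rated 3 weeks after treatment, using the scoring criteria of an earlier test. The compound, formulated as an emulsion and diluted in water to a set herbicide amount, had been sprayed uniformly on soil over freshly sown seeds. Growth took place in a greenhouse at 25° C. to 30° C.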

blackgrass [3] = assay: Test Example 5: herbicidal effect by foliage application, plastic box (Table 20, symbol J); format: in vivo, blackgrass (Alopecurus myosuroides); conditions: foliage application, three weeks after application
How it was run: as §2

persian speedwell = assay: Test Example 5: herbicidal effect by foliage application, plastic box (Table 20, symbol R); format: in vivo, Persian speedwell (Veronica persica); conditions: foliage application, three weeks after application
How it was run: as §2

Chinese sprangletop = assay: Test Example 3: herbicidal effect by foliage application, Wagner pot (Table 18, symbol D); format: in vivo, chinese sprangletop (Leptochloa chinensis)
How it was run: as §1

redroot pigweed [4] = assay: Test Example 4: herbicidal effect by soil treatment (Table 19, symbol N); format: in vivo, redroot pigweed (Amaranthus retroflexus)
How it was run: as §3

Italian ryegrass = assay: Test Example 5: herbicidal effect by foliage application, plastic box (Table 20, symbol K); format: in vivo, Italian ryegrass (Lolium multiflorum); conditions: foliage application, three weeks after application
How it was run: as §2

Japanese bulrush = assay: Test Example 1: herbicidal activity, application before weed generation under submerged conditions (Table 16, symbol B); format: in vivo, Japanese bulrush (Schoenoplectus juncoides)
How it was run: (§4)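 Emulsion formulation, water-diluted to set dose, was put onto the flooded surface (4 cm depth, alluvial soil) the same day weeds were sown and 2.5-leaf rice transplanted. After 3 weeks at 25-30 °C under glass, each species was rated 0 (≤5% kill) to 5 (≥90% kill).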

redroot pigweed [5] = assay: Test Example 5: herbicidal effect by foliage application, plastic box (Table 20, symbol N); format: in vivo, redroot pigweed (Amaranthus retroflexus); conditions: foliage application, three weeks after application
How it was run: as §2

lambsquarters = assay: Test Example 5: herbicidal effect by foliage application, plastic box (Table 20, symbol O); format: in vivo, lambsquarters (Chenopodium album); conditions: foliage application, three weeks after application
How it was run: as §2

blackgrass [6] = assay: Test Example 4: herbicidal effect by soil treatment (Table 19, symbol J); format: in vivo, blackgrass (Alopecurus myosuroides)
How it was run: as §3

barnyard grass [7] = assay: Test Example 5: herbicidal effect by foliage application, plastic box (Table 20, symbol H); format: in vivo, barnyard grass (Echinochloa crus-galli); conditions: foliage application, three weeks after application
How it was run: as §2

barnyard grass [8] = assay: Test Example 3: herbicidal effect by foliage application, Wagner pot (Table 18, symbol H); format: in vivo, barnyard grass (Echinochloa crus-galli)
How it was run: as §1

late watergrass = assay: Test Example 1: herbicidal activity, application before weed generation under submerged conditions (Table 16, symbol A); format: in vivo, late watergrass (Echinochloa oryzicola)
How it was run: as §4

windgrass = assay: Test Example 5: herbicidal effect by foliage application, plastic box (Table 20, symbol L); format: in vivo, windgrass (Apera spica-venti); conditions: foliage application, three weeks after application
How it was run: as §2

velvetleaf = assay: Test Example 5: herbicidal effect by foliage application, plastic box (Table 20, symbol M); format: in vivo, velvetleaf (Abutilon theophrasti); conditions: foliage application, three weeks after application
How it was run: as §2

southern crabgrass = assay: Test Example 4: herbicidal effect by soil treatment (Table 19, symbol F); format: in vivo, southern crabgrass (Digitaria ciliaris)
How it was run: as §3

[9] = amount of applied herbicide 320 g/ha
[10] = amount of applied herbicide 224 g/ha

With CCCC(=O)Oc1c(C)nn(C)c(=O)c1-c1c(-c2ccccc2OCC)sc2cc(Cl)ccc12 [3-040] the “herbicidal effect on rice flat sedge (E)” value (rice flat sedge; 320 g/ha) was 5 (Herbicidal rate of 90% or more (almost completely withered)), the “G: green foxtail, herbicidal effect grade” value (from here on “G: green foxtail”) (green foxtail [1]; 320 g/ha) was 4 (Herbicidal rate of 70% or more and less than 90%) and the “G: green foxtail” value (green foxtail [2]; [9]) was 2 (Herbicidal rate of 20% or more and less than 40%). The “J: blackgrass, herbicidal effect grade” value (blackgrass [3]; 320 g/ha) was 5 (Herbicidal rate of 90% or more (almost completely withered)), the “R: persian speedwell, herbicidal effect grade” value (“R: persian speedwell” for short) (persian speedwell; 320 g/ha) was 4 (Herbicidal rate of 70% or more and less than 90%) and the “herbicidal effect on Chinese sprangletop (D)” value (“herbicidal effect … (D)” for short) (Chinese sprangletop; 320 g/ha) was 0 (Herbicidal rate of 5% or less (almost no effect)). The “N: redroot pigweed, herbicidal effect grade” value (“N: redroot pigweed” below) (redroot pigweed [4]; [9]) was 4 (Herbicidal rate of 70% or more and less than 90%), the “K: Italian ryegrass, herbicidal effect grade” value (from here on “K: Italian ryegrass”) (Italian ryegrass; 320 g/ha) was 0 (Herbicidal rate of 5% or less (almost no effect)) and the “Herbicidal effect, B: Japanese bulrush” value (Japanese bulrush; [9]) was 3 (Herbicidal rate of 40% or more and less than 70%). For the same molecule, the “N: redroot pigweed” value (redroot pigweed [5]; 320 g/ha) was 5 (Herbicidal rate of 90% or more (almost completely withered)), the “O: lambsquarters, herbicidal effect grade” value (“O: lambsquarters” below) (lambsquarters; 320 g/ha) was 2 (Herbicidal rate of 20% or more and less than 40%) and the “J: blackgrass, herbicidal effect grade” value (blackgrass [6]; [9]) was 0 (Herbicidal rate of 5% or less (almost no effect)). The “H: barnyard grass, herbicidal effect grade” value (“H: barnyard grass” below) (barnyard grass [7]; 320 g/ha) was 5 (Herbicidal rate of 90% or more (almost completely withered)), the “herbicidal effect on barnyard grass (H)” value (barnyard grass [8]; 320 g/ha) was 5 (Herbicidal rate of 90% or more (almost completely withered)) and the “Herbicidal effect, A: late watergrass” value (late watergrass; [9]) was 4 (Herbicidal rate of 70% or more and less than 90%). The “L: windgrass, herbicidal effect grade” value (windgrass; 320 g/ha) was 5 (Herbicidal rate of 90% or more (almost completely withered)), the “M: velvetleaf, herbicidal effect grade” value (velvetleaf; 320 g/ha) was 4 (Herbicidal rate of 70% or more and less than 90%) and the “F: southern crabgrass, herbicidal effect grade” value (“F: southern crabgrass” for short) (southern crabgrass; [9]) was 1 (Herbicidal rate of 5% or more and less than 20%).
With COc1cc(F)ccc1-c1sc2cc(Cl)ccc2c1-c1c(O)c(C)nn(C)c1=O [3-043] the “herbicidal effect on rice flat sedge (E)” value (rice flat sedge; 320 g/ha) was 5 (Herbicidal rate of 90% or more (almost completely withered)), the “G: green foxtail” value (green foxtail [1]; 320 g/ha) was 5 (Herbicidal rate of 90% or more (almost completely withered)) and the “G: green foxtail” value (green foxtail [2]; [9]) was 4 (Herbicidal rate of 70% or more and less than 90%). For the same molecule, the “J: blackgrass, herbicidal effect grade” value (blackgrass [3]; 320 g/ha) was 5 (Herbicidal rate of 90% or more (almost completely withered)), the “R: persian speedwell” value (persian speedwell; 320 g/ha) was 5 (Herbicidal rate of 90% or more (almost completely withered)) and the “herbicidal effect … (D)” value (Chinese sprangletop; 320 g/ha) was 3 (Herbicidal rate of 40% or more and less than 70%). The “N: redroot pigweed” value (redroot pigweed [4]; [9]) was 4 (Herbicidal rate of 70% or more and less than 90%), the “K: Italian ryegrass” value (Italian ryegrass; 320 g/ha) was 2 (Herbicidal rate of 20% or more and less than 40%) and the “Herbicidal effect, B: Japanese bulrush” value (Japanese bulrush; [9]) was 1 (Herbicidal rate of 5% or more and less than 20%). For the same molecule, the “N: redroot pigweed” value (redroot pigweed [5]; 320 g/ha) was 2 (Herbicidal rate of 20% or more and less than 40%), the “O: lambsquarters” value (lambsquarters; 320 g/ha) was 4 (Herbicidal rate of 70% or more and less than 90%) and the “J: blackgrass, herbicidal effect grade” value (blackgrass [6]; [9]) was 3 (Herbicidal rate of 40% or more and less than 70%). The “H: barnyard grass” value (barnyard grass [7]; 320 g/ha) was 4 (Herbicidal rate of 70% or more and less than 90%), the “herbicidal effect on barnyard grass (H)” value (barnyard grass [8]; 320 g/ha) was 5 (Herbicidal rate of 90% or more (almost completely withered)) and the “Herbicidal effect, A: late watergrass” value (late watergrass; [9]) was 0 (Herbicidal rate of 5% or less (almost no effect)). For the same molecule, the “L: windgrass, herbicidal effect grade” value (windgrass; 320 g/ha) was 5 (Herbicidal rate of 90% or more (almost completely withered)), the “M: velvetleaf, herbicidal effect grade” value (velvetleaf; 320 g/ha) was 5 (Herbicidal rate of 90% or more (almost completely withered)) and the “F: southern crabgrass” value (southern crabgrass; [9]) was 0 (Herbicidal rate of 5% or less (almost no effect)).
CCOc1cc(F)ccc1-c1sc2cc(Cl)ccc2c1-c1c(O)c(C)nn(C)c1=O [3-045] was tested, and the “herbicidal effect on rice flat sedge (E)” value (rice flat sedge; 320 g/ha) was 5 (Herbicidal rate of 90% or more (almost completely withered)), the “G: green foxtail” value (green foxtail [1]; 320 g/ha) was 5 (Herbicidal rate of 90% or more (almost completely withered)) and the “G: green foxtail” value (green foxtail [2]; [9]) was 4 (Herbicidal rate of 70% or more and less than 90%). For the same molecule, the “J: blackgrass, herbicidal effect grade” value (blackgrass [3]; 320 g/ha) was 4 (Herbicidal rate of 70% or more and less than 90%), the “R: persian speedwell” value (persian speedwell; 320 g/ha) was 5 (Herbicidal rate of 90% or more (almost completely withered)) and the “herbicidal effect … (D)” value (Chinese sprangletop; 320 g/ha) was 4 (Herbicidal rate of 70% or more and less than 90%). For the same molecule, the “N: redroot pigweed” value (redroot pigweed [4]; [9]) was 3 (Herbicidal rate of 40% or more and less than 70%), the “K: Italian ryegrass” value (Italian ryegrass; 320 g/ha) was 0 (Herbicidal rate of 5% or less (almost no effect)) and the “Herbicidal effect, B: Japanese bulrush” value (Japanese bulrush; [9]) was 1 (Herbicidal rate of 5% or more and less than 20%). The “N: redroot pigweed” value (redroot pigweed [5]; 320 g/ha) was 4 (Herbicidal rate of 70% or more and less than 90%), the “O: lambsquarters” value (lambsquarters; 320 g/ha) was 3 (Herbicidal rate of 40% or more and less than 70%) and the “J: blackgrass, herbicidal effect grade” value (blackgrass [6]; [9]) was 3 (Herbicidal rate of 40% or more and less than 70%). The “H: barnyard grass” value (barnyard grass [7]; 320 g/ha) was 5 (Herbicidal rate of 90% or more (almost completely withered)), the “herbicidal effect on barnyard grass (H)” value (barnyard grass [8]; 320 g/ha) was 5 (Herbicidal rate of 90% or more (almost completely withered)) and the “Herbicidal effect, A: late watergrass” value (late watergrass; [9]) was 2 (Herbicidal rate of 20% or more and less than 40%). The “L: windgrass, herbicidal effect grade” value (windgrass; 320 g/ha) was 5 (Herbicidal rate of 90% or more (almost completely withered)), the “M: velvetleaf, herbicidal effect grade” value (velvetleaf; 320 g/ha) was 5 (Herbicidal rate of 90% or more (almost completely withered)) and the “F: southern crabgrass” value (southern crabgrass; [9]) was 5 (Herbicidal rate of 90% or more (almost completely withered)).
In the case of CCCC(=O)Oc1c(C)nn(C)c(=O)c1-c1c(-c2ccccc2OC)sc2cc(C)ccc12 [3-050], the “herbicidal effect on rice flat sedge (E)” value (rice flat sedge; 224 g/ha) was 3 (Herbicidal rate of 40% or more and less than 70%), the “G: green foxtail” value (green foxtail [1]; 224 g/ha) was 3 (Herbicidal rate of 40% or more and less than 70%) and the “G: green foxtail” value (green foxtail [2]; [10]) was 0 (Herbicidal rate of 5% or less (almost no effect)). For the same molecule, the “J: blackgrass, herbicidal effect grade” value (blackgrass [3]; 224 g/ha) was 4 (Herbicidal rate of 70% or more and less than 90%), the “R: persian speedwell” value (persian speedwell; 224 g/ha) was 5 (Herbicidal rate of 90% or more (almost completely withered)) and the “herbicidal effect … (D)” value (Chinese sprangletop; 224 g/ha) was 3 (Herbicidal rate of 40% or more and less than 70%). The “N: redroot pigweed” value (redroot pigweed [4]; [10]) was 0 (Herbicidal rate of 5% or less (almost no effect)), the “K: Italian ryegrass” value (Italian ryegrass; 224 g/ha) was 4 (Herbicidal rate of 70% or more and less than 90%) and the “Herbicidal effect, B: Japanese bulrush” value (Japanese bulrush; [10]) was 0 (Herbicidal rate of 5% or less (almost no effect)). For the same molecule, the “N: redroot pigweed” value (redroot pigweed [5]; 224 g/ha) was 4 (Herbicidal rate of 70% or more and less than 90%), the “O: lambsquarters” value (lambsquarters; 224 g/ha) was 0 (Herbicidal rate of 5% or less (almost no effect)) and the “J: blackgrass, herbicidal effect grade” value (blackgrass [6]; [10]) was 0 (Herbicidal rate of 5% or less (almost no effect)). For the same molecule, the “H: barnyard grass” value (barnyard grass [7]; 224 g/ha) was 4 (Herbicidal rate of 70% or more and less than 90%), the “herbicidal effect on barnyard grass (H)” value (barnyard grass [8]; 224 g/ha) was 4 (Herbicidal rate of 70% or more and less than 90%) and the “Herbicidal effect, A: late watergrass” value (late watergrass; [10]) was 2 (Herbicidal rate of 20% or more and less than 40%). The “L: windgrass, herbicidal effect grade” value (windgrass; 224 g/ha) was 4 (Herbicidal rate of 70% or more and less than 90%), the “M: velvetleaf, herbicidal effect grade” value (velvetleaf; 224 g/ha) was 4 (Herbicidal rate of 70% or more and less than 90%) and the “F: southern crabgrass” value (southern crabgrass; [10]) was 0 (Herbicidal rate of 5% or less (almost no effect)).
